SMILES strings stand for the structures. ≈ marks a conversion by molar mass, not a printed value. A value given as a limit tells only on which side of the number the result lay.

What all share (format): cell-based
One assay relates to Ps. aeruginosa DY-2. Briefly: MIC by agar dilution, Ps. aeruginosa DY-2. The settings on record: Pseudomonas aeruginosa, DY2, 17 h; Ps. aeruginosa DY-2; agar dilution, Mueller-Hinton agar; read-out: Minimal Inhibitory Concentration (MIC). The procedure, abridged:
(§1)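 Strains at 10^6 CFU/ml are spotted onto Mueller-Hinton agar holding two-fold serial compound dilutions, then held 17±1 hours at 35°-37° C. Ceftazidime and cefotaxime are run as reference compounds.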

For another assay, the system named is Staph. aureus Smith. Nature of the assay: MIC by agar dilution, Staph. aureus Smith. The settings on record: Staphylococcus aureus, 17 h, Mueller-Hinton agar, read-out: Minimal Inhibitory Concentration (MIC). The procedure, abridged: as §1
A general note: In agar dilution the substance is mixed into plates at graded concentrations.

The next assay concerns Prov. stuartii IFO 12930. Briefly: MIC by agar dilution, Prov. stuartii IFO 12930. The settings on record: Providencia stuartii, IFO12930, 17 h, Mueller-Hinton agar, read-out: Minimal Inhibitory Concentration (MIC). The procedure, abridged: as §1
For another assay, the system named is Staph. aureus C-5113. Briefly: MIC by agar dilution, Staph. aureus C-5113. The conditions noted are these: Staphylococcus aureus, C5113, 17 h, Mueller-Hinton agar, read-out: Minimal Inhibitory Concentration (MIC). In outline: as §1
The subject of assay [1] is S. epidermidis ATCC 12228. Nature of the assay: MIC by agar dilution, S. epidermidis ATCC 12228. The conditions noted are these: Staphylococcus epidermidis, ATCC12228, 17 h; S. epidermidis ATCC 12228; agar dilution, Mueller-Hinton agar; read-out: Minimal Inhibitory Concentration (MIC). The procedure, abridged: as §1
The next assay deals with Staph. aureus ATCC 6538P. Nature of the assay: MIC by agar dilution, Staph. aureus ATCC 6538P. The settings on record: Staphylococcus aureus, ATCC6538P, 17 h; Staph. aureus ATCC 6538P; agar dilution, Mueller-Hinton agar; read-out: Minimal Inhibitory Concentration (MIC). The procedure, abridged: as §1
In the next assay the test system is Staph. aureus C-57. Briefly: MIC by agar dilution, Staph. aureus C-57. The settings on record: Staphylococcus aureus, C57, 17 h, Mueller-Hinton agar, read-out: Minimal Inhibitory Concentration (MIC). In outline: as §1
The test system of another assay is B. subtilis ATCC 6633. Briefly: MIC by agar dilution, B. subtilis ATCC 6633. The conditions noted are these: Bacillus subtilis, ATCC6633, 17 h; B. subtilis ATCC 6633; agar dilution, Mueller-Hinton agar; read-out: Minimal Inhibitory Concentration (MIC). In outline:
as §1

In a further assay the test system is Ent. aerogenes IFO 12979. Briefly: MIC by agar dilution, Ent. aerogenes IFO 12979. The settings on record: Klebsiella aerogenes, IFO12979, 17 h, Mueller-Hinton agar, read-out: Minimal Inhibitory Concentration (MIC). The procedure, abridged: as §1
The next assay deals with Staph. aureus C-5216. Nature of the assay: MIC by agar dilution, Staph. aureus C-5216. The settings on record: Staphylococcus aureus, C5216, 17 h, Mueller-Hinton agar, read-out: Minimal Inhibitory Concentration (MIC). The procedure, abridged: as §1
For another assay, the system named is E. coli No. 29. Nature of the assay: MIC by agar dilution, E. coli No. 29. The settings on record: Escherichia coli, 17 h; E. coli No. 29; agar dilution, Mueller-Hinton agar; read-out: Minimal Inhibitory Concentration (MIC). In outline: as §1
The test system of the next assay is P. vulgaris NCTC 8313. Briefly: MIC by agar dilution, P. vulgaris NCTC 8313. The conditions noted are these: Proteus vulgaris, NCTC8313, 17 h; P. vulgaris NCTC 8313; agar dilution, Mueller-Hinton agar; read-out: Minimal Inhibitory Concentration (MIC). In outline: as §1
The subject of assay [2] is Ps. aeruginosa NCTC 10490. Briefly: MIC by agar dilution, Ps. aeruginosa NCTC 10490. The conditions noted are these: Pseudomonas aeruginosa, NCTC10490, 17 h, Mueller-Hinton agar, read-out: Minimal Inhibitory Concentration (MIC). In outline:
as §1

The next assay deals with M. morganii DY-1. Nature of the assay: MIC by agar dilution, M. morganii DY-1. The settings on record: Morganella morganii, DY1, 17 h; M. morganii DY-1; agar dilution, Mueller-Hinton agar; read-out: Minimal Inhibitory Concentration (MIC). In outline: as §1
Assay [3] relates to Ps. aeruginosa ATCC 10145. Nature of the assay: MIC by agar dilution, Ps. aeruginosa ATCC 10145. The settings on record: Pseudomonas aeruginosa, ATCC10145, 17 h, Mueller-Hinton agar, read-out: Minimal Inhibitory Concentration (MIC). The procedure, abridged:
as §1

Another assay relates to E. coli DY-1. Nature of the assay: MIC by agar dilution, E. coli DY-1. The conditions noted are these: Escherichia coli, DY1, 17 h; E. coli DY-1; agar dilution, Mueller-Hinton agar; read-out: Minimal Inhibitory Concentration (MIC). In outline:
as §1

In the next assay the test system is E. coli NIHJ JC-2. Briefly: MIC by agar dilution, E. coli NIHJ JC-2. The settings on record: Escherichia coli, NIHJJC2, 17 h; E. coli NIHJ JC-2; agar dilution, Mueller-Hinton agar; read-out: Minimal Inhibitory Concentration (MIC). The procedure, abridged: as §1
Assay [4] has as its system Ser. marcescens IFO 12648. Nature of the assay: MIC by agar dilution, Ser. marcescens IFO 12648. The conditions noted are these: Serratia marcescens, IFO12648, 17 h; Ser. marcescens IFO 12648; agar dilution, Mueller-Hinton agar; read-out: Minimal Inhibitory Concentration (MIC). The procedure, abridged: as §1
The subject of another assay is Ent. cloacae IFO 13535. Nature of the assay: MIC by agar dilution, Ent. cloacae IFO 13535. The conditions noted are these: Enterobacter cloacae, IFO13535, 17 h; Ent. cloacae IFO 13535; agar dilution, Mueller-Hinton agar; read-out: Minimal Inhibitory Concentration (MIC). The procedure, abridged: as §1
Another assay has as its system K. pneumoniae NCTC 9632. Nature of the assay: MIC by agar dilution, K. pneumoniae NCTC 9632. The settings on record: Klebsiella pneumoniae, NCTC9632, 17 h; K. pneumoniae NCTC 9632; agar dilution, Mueller-Hinton agar; read-out: Minimal Inhibitory Concentration (MIC). The procedure, abridged: as §1

`CO/N=C(\C(=O)N[C@@H]1C(=O)N2C(C(=O)[O-])=C(C[n+]3ccn4ccc(Cl)c4c3)CS[C@H]12)c1csc(N)n1` [Ex. 33, 7-β-[(Z)-2-(2-aminothiazol-4-yl)2-methoxyiminoacetamido]-3-(8-chloropyrrolo[1,2-a]pyrazinium-2-yl)methyl-3-cephem-4-carboxylate]: the MIC in the assay with Ps. aeruginosa DY-2 is 1.56 µg/mL (≈ 2.85 µM); in the assay on Staph. aureus Smith it was 0.2 µg/mL (≈ 0.365 µM); with Prov. stuartii IFO 12930, at most 0.006 µg/mL; in the assay on Staph. aureus C-5113, 0.78 µg/mL (≈ 1.42 µM); in [1], 0.05 µg/mL (≈ 0.0912 µM); in the assay with Staph. aureus ATCC 6538P, 0.2 µg/mL (≈ 0.365 µM). Besides, the MIC was 25 µg/mL (≈ 45.6 µM) with Staph. aureus C-57; 0.2 µg/mL (≈ 0.365 µM) with B. subtilis ATCC 6633; 0.025 µg/mL (≈ 0.0456 µM) in the assay on Ent. aerogenes IFO 12979; 0.2 µg/mL (≈ 0.365 µM) in the assay on Staph. aureus C-5216; at most 0.006 µg/mL in the assay on E. coli No. 29; at most 0.006 µg/mL in the assay on P. vulgaris NCTC 8313. Besides, the MIC in assay [2] was 0.2 µg/mL (≈ 0.365 µM); in the assay with M. morganii DY-1, at most 0.006 µg/mL; in assay [3], 0.78 µg/mL (≈ 1.42 µM); with E. coli DY-1, at most 0.006 µg/mL; in the assay on E. coli NIHJ JC-2 it was 0.012 µg/mL (≈ 0.0219 µM); in [4], 0.012 µg/mL (≈ 0.0219 µM). In addition, the results for the MIC in the assay on Ent. cloacae IFO 13535 and in the assay with K. pneumoniae NCTC 9632 were 0.05 µg/mL (≈ 0.0912 µM) and 0.012 µg/mL (≈ 0.0219 µM), respectively.

In the case of `CCO/N=C(\C(=O)N[C@@H]1C(=O)N2C(C(=O)[O-])=C(C[n+]3ccn4c(Br)ccc4c3C)CS[C@H]12)c1csc(N)n1` [Ex. 42, 7-β-[(Z)-2-(2-aminothiazol-4-yl)-2-ethoxyiminoacetamido]-3-(6-bromo-1-methylpyrrolo[1,2-a]pyrazinium-2-yl)methyl-3-cephem-4-carboxylate], the MIC stood at 25 µg/mL (≈ 40.3 µM) with Ps. aeruginosa DY-2; 1.56 µg/mL (≈ 2.51 µM) in the assay on Staph. aureus Smith; 0.05 µg/mL (≈ 0.0806 µM) in the assay with Prov. stuartii IFO 12930; 1.56 µg/mL (≈ 2.51 µM) with Staph. aureus C-5113; 0.1 µg/mL (≈ 0.161 µM) in assay [1]; 0.39 µg/mL (≈ 0.629 µM) in the assay on Staph. aureus ATCC 6538P. Besides, the MIC worked out at 25 µg/mL (≈ 40.3 µM) in the assay on Staph. aureus C-57; 0.39 µg/mL (≈ 0.629 µM) in the assay with B. subtilis ATCC 6633; 0.05 µg/mL (≈ 0.0806 µM) in the assay on Ent. aerogenes IFO 12979; 3.13 µg/mL (≈ 5.04 µM) in the assay with Staph. aureus C-5216; 0.05 µg/mL (≈ 0.0806 µM) in the assay with E. coli No. 29; 0.025 µg/mL (≈ 0.0403 µM) with P. vulgaris NCTC 8313. Further, the MIC worked out at 3.13 µg/mL (≈ 5.04 µM) in assay [2]; 0.2 µg/mL (≈ 0.322 µM) in the assay on M. morganii DY-1; 6.25 µg/mL (≈ 10.1 µM) in [3]; 0.025 µg/mL (≈ 0.0403 µM) with E. coli DY-1; 0.2 µg/mL (≈ 0.322 µM) in the assay on E. coli NIHJ JC-2; 0.2 µg/mL (≈ 0.322 µM) in assay [4]. The MIC was 0.78 µg/mL (≈ 1.26 µM) in the assay with Ent. cloacae IFO 13535 and 0.2 µg/mL (≈ 0.322 µM) with K. pneumoniae NCTC 9632.

`CC(C)(ON=C(C(=O)NC1C(=O)N2C(C(=O)[O-])=C(C[n+]3ccn4c(CO)ccc4c3)CSC12)c1csc(N)n1)C(=O)O` (stereo not drawn) [Ex. 24, 7-β-[(Z)-2-(2-aminothiazol-4-yl)-2-(2-carboxyprop-2-oxyimino)acetamido]-3-(6hydroxymethylpyrrolo[1,2-a]pyrazinium-2-yl)methyl-3-cephem-4-carboxylate]: the MIC in the assay with Ps. aeruginosa DY-2 was 25 µg/mL (≈ 40.6 µM); in the assay with Staph. aureus Smith, 3.13 µg/mL (≈ 5.08 µM); in the assay with Prov. stuartii IFO 12930, 0.39 µg/mL (≈ 0.633 µM); in the assay with Staph. aureus C-5113, 1.56 µg/mL (≈ 2.53 µM); in assay [1], 0.39 µg/mL (≈ 0.633 µM); in the assay on Staph. aureus ATCC 6538P it was 0.39 µg/mL (≈ 0.633 µM). Moreover, the MIC with Staph. aureus C-57 was 100 µg/mL (≈ 162 µM); with B. subtilis ATCC 6633, 1.56 µg/mL (≈ 2.53 µM); in the assay on Ent. aerogenes IFO 12979 it was 0.2 µg/mL (≈ 0.325 µM); with Staph. aureus C-5216 it was 6.25 µg/mL (≈ 10.2 µM); with E. coli No. 29 it was 1.56 µg/mL (≈ 2.53 µM); in the assay on P. vulgaris NCTC 8313 it was 0.05 µg/mL (≈ 0.0812 µM). The MIC was 6.25 µg/mL (≈ 10.2 µM) in [2]; 0.78 µg/mL (≈ 1.27 µM) with M. morganii DY-1; 12.5 µg/mL (≈ 20.3 µM) in [3]; 0.78 µg/mL (≈ 1.27 µM) with E. coli DY-1; 3.13 µg/mL (≈ 5.08 µM) with E. coli NIHJ JC-2; 0.39 µg/mL (≈ 0.633 µM) in [4]. Besides, the MIC in the assay with Ent. cloacae IFO 13535 worked out at 6.25 µg/mL (≈ 10.2 µM); in the assay on K. pneumoniae NCTC 9632, 0.78 µg/mL (≈ 1.27 µM).

Values taken from US5593984A, “Cephalosporin derivatives” (Yuhan Corporation, priority 1992, dated 1997).
